Series [1] relates to CRF2 receptors. In words: CRF2 receptor autoradiography: 125I-sauvagine binding in lateral septum of treated rats. It is filed as in vivo, rat. The procedure: Rats were sacrificed by exposure to CO2. Brains were removed and frozen in methylbutane cooled on dry ice before storage at −80° C. Twenty μm sections through the lateral septum were cut on a cryostat(Kopf Instruments) for receptor autoradiography.
After warming to room temperature for 1 hour, brain sections were preincubated for 5 minutes in 50 mM Tris-HCL (pH 7.5) containing 10 mM MgCl2, 2 mM EGTA (ethylene glycol-bis(β-aminoethyl ether)N,N,N′,N′-tetraacetic acid), 0.1% ovalbumin, 0.08 TIU aprotinin and 0.1 mM bacitracin. Total binding was defined using 0.15 nM ^125I-sauvagine (New England Nuclear). CRF2 specific binding was determined in the presence of 1 μM SC-241, a CRF1 selective receptor antagonist (D. H. Rominger et alJ. Pharmacol. Exp. Therap., 286, 459-468, 1998). Non-specific binding was determined using 1 μM a-helical CRF (American Peptide). Incubations were performed in preincubation buffer containing radioligand and appropriate antagonists for 150 minutes. Tissue sections were then washed twice for 5 minutes each, in PBS containing 0.01% Triton X-100. After a final water rinse, excess water was aspirated and the sections were air-dried overnight. The sections and ^125I standard strips (Amersham) were exposed to Hyperfilm μ-Max (Amersham) for 72 hours.
Quantitation of CRF2 specific binding was performed using the NIH ImageMG 1.44 program. Optical density readings were converted to nCi of ligand bound per mg of protein tissue using ^125I standard strips. Between 7 to 9 adjacent sections were quantitated per rat.

The subject of series [2] is rats. Briefly: Freezing assay of anxiety (shock box). It is filed as in vivo, rat. The procedure:
CRF2 antisense oligonucleotides were administered intracerebroventricularly to target the lateral septum, a brain region containing high levels of CRF2 receptor and mRNA. The lateral septum is part of the limbic brain region known for its involvement in modulating fear and emotion. Rats treated with saline, antisense and mismatch-control oligonucleotides were tested in two different behavioral models of anxiety. Rodents display a characteristic freezing behavior when experiencing fear and anxiety. In the freezing model of anxiety, such behavior is induced by exposure to brief electrical foot-shocks. […] Administration of anxiolytic drugs such as benzodiazepines and selective serotonin reuptake inhibitors reduces the duration of freezing when previously shocked animals are returned to the shock box. In the antisense experiments, dosing of oligonucleotides began after two consecutive days of foot-shock treatment. Two hours following the last oligonucleotide administration on day 8 of dosing, rats were returned to the shock box and observed for 10 minutes. In this part of the experiment, which examines the effect of the pharmacological agent on conditioned fears, the antisense oligonucleotide, but not its mismatch control, reduced the duration of freezing by 50% (FIG. 3a). […] Furthermore, a robust suppression of CRF2 receptors produced important functional consequences that may not be apparent at lower levels of CRF2 receptor inhibition.
The shock box consisted of a black Plexiglas chamber with walls and cover. The doors of the box were constructed of clear Plexiglas over which one-way mirrors were attached for observation. The floor of the box contained a Coulbourn stainless steel shock grid with the bars of the grid spaced 1 cm apart. On the 8th day following surgical implantation of the guide cannulae, rats were placed in the box and allowed to habituate for 2 minutes. A total of 3 scrambled, randomized non-escapable foot-shocks (1.0 mA, 1 second duration) were then delivered at 20 second intervals to the grid floor. […]

Series [3] deals with CRF2 receptor mRNA. In words: Quantitative in situ hybridization of CRF2 receptor mRNA. Conditions: 9 days dosing. It is filed as in vivo, rodent. From the text: The absence of functional changes resulting from small antisense inhibitory effects often leads to non-interpretable results. This is due to the uncertainty of whether the experiment produced truly negative results or whether the antisense inhibition was insufficient to reveal a functional change. In addition to the antisense sequence, the magnitude of antisense inhibitory effects is influenced by the duration of antisense treatment and its relation to the half-life of the targeted protein. While the half-life of the CRF2 receptor is unknown, half-lives of other 7-transmembrane receptors in rodent brain (of which the CRF2 receptor is a member) are on the order of 2-3 days. Maximal inhibitory effects are typically seen after antisense treatment for at least 3 protein half-lives. While CRF2 antisense administration for 5 days produced a 40-50% inhibition of the receptor, increasing the duration of dosing to 9 days led to a 70-80% inhibitory effect on receptor binding. […] Therefore, in contrast to Heinrichs et al. whose CRF2 antisense oligonucleotide produced only a 15-20% CRF2 receptor reduction concomitant with significant weight loss in the treated animals, we have optimized antisense reagents for the study of CRF2 receptor function.

In series [4] the test system is rats. Briefly: Elevated plus maze assay. Conditions: dosed 8 days, tested 2 hours after last injection; FIG. 4a. Type of series: in vivo, rat. From the text:
The elevated plus maze (EPM) is widely used for the determination of anxiolytic or anxiogenic drug effects. The apparatus consists of a +-shaped maze, elevated 50 cm above the floor. Two opposing arms are open and exposed to the environment while the other two arms are enclosed with black Plexiglas sides. In rodents, exposure to the EPM produces an approach/avoidance conflict which generally causes the animal to spend most of its time in the closed arms of the maze.
In the antisense experiment, rats were dosed for 8 days and then tested in the EPM 2 hours after the last oligonucleotide injection. […] Such behavior is indicative of a reduced state of anxiety. […] Binding of ^125I-sauvagine to CRF2 receptors in the lateral septum was reduced by 60% by the antisense oligonucleotide in this experiment (FIG. 4b).
Oligonucleotide treatment of rats was begun on the 8th day following surgery. Rats were tested in the EPM 2 hours following dosing on the 8th day of treatment. At the start of the test, the rat was placed in the center square of the maze and its exploratory behavior during the ensuing 10 minutes was recorded by video-camera. An observer situated outside the test room scored the time spent in the open and closed arms, as well as the number of entries into each arm of the maze. The rats were euthanitized immediately following the conclusion of the test.

d = 2'-deoxy (DNA); m = 2'-O-methyl

As to “TGA CGC agc ggc acC AGA CC (TGACGCAGCGGCACCAGACC; sugars from the 5' end m6 d8 m6, linkages o6 s8 o5 (s phosphorothioate, o phosphodiester), methylation of C not given here) [antisense oligonucleotide]”, the “inhibition of the receptor” value in series [1] (administration for 5 days) is on record as 40-50%. Further, the CRF2 receptor binding in series [1] (combination study, saline/methocel control 1.20±0.05) is recorded as 0.51±0.08 nCi/mg. For the same sequence, the “inhibitory effect on receptor binding” value in series [1] (dosing for 9 days) is 70-80%. In series [1] (rats of the elevated plus maze experiment, FIG. 4b), the “reduction of binding of 125I-sauvagine to CRF2 receptors in the lateral septum” value came to 60%. Also, in series [1] (septal brain region of rats of the freezing assay, FIG. 3b), the “reduction in 125I-sauvagine binding to CRF2 receptors” value turned out to be 70%. Also, the “reduction in the duration of freezing” value in series [2] (after two brief foot-shocks, additional 10 minutes, vs saline or mismatch, FIG. 3a) amounted to 50%. Further, in series [2] (combination study: antisense icv 7 days, DPC904 oral, FIG. 7b), the “freezing in the conditioned anxiety test” value was “significant reductions in freezing”. Also, in series [2] (conditioned fear, icv, return to shock box, first 10 minutes, FIG. 3a), the “reduction of duration of freezing” value is listed as 50%. In addition, in series [3], the “decrease in CRF2 receptor mRNA” value was “comparable decreases”. Moreover, the “time in the open arms of the maze” value in series [4] is given as “significantly more time in the open, exposed arms”.
“TGA GGC acc gga acC ACA CC (TGAGGCACCGGAACCACACC; sugars from the 5' end m6 d8 m6, linkages o6 s8 o5 (s phosphorothioate, o phosphodiester), methylation of C not given here) [Mismatch oligonucleotide, 4-base mismatch control of the antisense oligonucleotide, same chimeric chemistry, reference compound]”: the “decrease in receptor binding” value in series [1] (9 days dosing) is listed as “minimal decreases”. In addition, in series [3], the “decrease in CRF2 receptor mRNA” value is on record as “minimal decreases”. Also, the “time in the open arms of the maze” value in series [4] is reported as “not statistically different from saline-treated rats”.
